Source: PMC3298571 (Bioorganic & medicinal chemistry, 2012)
Entries after “also recorded” stand apart in the source; their conditions may differ. Marks after values point to notes of the source that are not given here.

What was measured:
mice [1] = conditions: cited from earlier work
mice [2] = conditions: cited from earlier work; remark: listed apart in the source
CB1 receptors = conditions: [35S]GTPγS binding assay; cited from earlier work
CB1 receptor [3] = conditions: read-out: Ki CB1; cited from earlier work
Male ICR mice [4] = conditions: mouse; cited from earlier work
Male ICR mice [5] = conditions: mouse; cited from earlier work; remark: listed apart in the source
mice [6] = experiment: Rimonabant antagonism of tetrad effects in mice; format: in vivo, mouse; conditions: 3 mg/kg rimonabant, 30 mg/kg JWH-415
CB1 receptor [7] = target: CB1 receptor (Homo sapiens, UniProt P21554); experiment: [35S]GTPγS binding assay; format: biochemical
Sequence of CB1 receptor (Homo sapiens, UniProt P21554) (P21554 whole entry): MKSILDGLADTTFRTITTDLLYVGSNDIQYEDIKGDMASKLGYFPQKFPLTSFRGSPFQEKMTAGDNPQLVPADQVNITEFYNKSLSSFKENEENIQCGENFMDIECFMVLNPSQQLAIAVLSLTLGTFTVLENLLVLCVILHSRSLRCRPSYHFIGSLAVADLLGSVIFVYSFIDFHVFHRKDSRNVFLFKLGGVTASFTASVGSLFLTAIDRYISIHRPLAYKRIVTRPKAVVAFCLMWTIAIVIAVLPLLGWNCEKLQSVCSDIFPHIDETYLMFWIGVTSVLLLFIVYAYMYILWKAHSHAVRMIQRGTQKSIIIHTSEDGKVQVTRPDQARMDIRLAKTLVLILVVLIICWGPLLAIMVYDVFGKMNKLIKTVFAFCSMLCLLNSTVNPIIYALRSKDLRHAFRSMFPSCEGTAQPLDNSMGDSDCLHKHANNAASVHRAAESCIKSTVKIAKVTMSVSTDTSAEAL

Male ICR mice [8] = conditions: mouse; cited from earlier work; remark: listed apart in the source
Male ICR mice [9] = conditions: mouse; cited from earlier work; remark: listed apart in the source
CB2 receptor = conditions: read-out: Ki CB2; cited from earlier work

SMILES | Ki (CB1 receptor [3]) | ED50 TF (Male ICR mice [4]) | ED50 SA (Male ICR mice [5]) | ED50 RT (Male ICR mice [8]) | Ki (CB2 receptor) | also measured
C=C1CC[C@@H]2[C@@H](C1)c1ccc(C(C)(C)CCCCCC)cc1OC2(C)C [JWH-104, deoxy-Δ^9(11)-THC-dimethylheptyl] | 909 nM | – | – | – | – | Substitution for THC in drug discrimination (mice [1]): did not substitute for THC; Effect of rimonabant on cannabimimetic effects in the battery of mouse tests (mice [2]): blocked by rimonabant; Efficacy at CB1 receptors (CB1 receptors): low efficacy agonist
Cc1c(C(=O)c2cccc3ccccc23)c2cccc3c2n1[C@H](CN1CCOCC1)CO3 [WIN-55,212-2] | – | 0.94^c μmol / kg | 0.23^c μmol / kg | – | – | –
CCCn1c(C)c(C(=O)c2ccc(F)c3ccccc23)c2ccccc21 [JWH-415, 2-Methyl-1-propyl-3-(4-fluoro-1-naphthoyl)indole] | – | – | – | – | – | Effect of rimonabant on tetrad effects (mice [6]): blocked or partially blocked; also recorded: rimonabant-reversible activity; Efficacy at the CB1 receptor (CB1 receptor [7]): low efficacy agonist
CCCn1c(C)c(C(=O)c2cccc3ccccc23)c2ccccc21 [JWH-015, 1-propyl-2-methyl-3-(1-naphthoyl)indole] | – | 84.7^e μmol / kg | 18.7^e μmol / kg | 99.1^e μmol / kg | – | ED50 RI (Male ICR mice [9]): 87.2^e μmol / kg
CCCCCn1cc(C(=O)c2cccc3ccccc23)c2ccccc21 [JWH-018, 1-pentyl-3-(1-naphthoyl)indole] | 9 ± 5 nM | 0.09^e μmol / kg | 0.44^e μmol / kg | 1.7^e μmol / kg | 2.9 ± 2.6 nM | –
CCCCCn1c(C)c(C(=O)c2ccc(CC)c3ccccc23)c2ccccc21 [JWH-213] | 1.5 ± 0.2 nM | – | – | – | 0.42 ± 0.05 nM | –
